Source: the OPERA property sets (Mansouri et al. 2018)

Compound | logP
Cc1cc(C)cc(O[Si]23OCCN(CCO2)CCO3)c1 | 0.46
CN(CCO)N=Nc1ccccc1 | 1.71
CN(C)/N=N/c1cc(C(N)=O)cc(C(N)=O)c1 | 0.22
COC(=O)C1(n2ccnc2[N+](=O)[O-])CC(OC(C)=O)C(NC(C)=O)C(C(OC(C)=O)C(COC(C)=O)OC(C)=O)O1 (stereo not drawn) | 0.41
CCOP(=S)(OCC)Oc1ccc(SC)cc1Cl | 4.4
Cc1cccc2c([N+](=O)[O-])cc[n+]([O-])c12 | 1.59
CN(C)N=[N+]([O-])c1ccccc1 | 1.8
COc1cc(CC(C)N)cc(OC)c1OC (stereo not drawn) | 1.21
c1ccc(Sc2cnn[nH]2)cc1 | 2.65
O=c1cn[nH]c2ccccc12 | 0.82
CN(C)CCc1ccsc1 | 1.94
OCC1OC(SCCc2ccccc2)C(O)C(O)C1O (stereo not drawn) | -0.1
CCOP(=O)(OCC)Oc1c(Cl)cc(SC)cc1Cl | 3.72
C[N+](C)(C)Cc1cccc(Cl)c1.[Br-] | -1.81
O=[N+]([O-])c1nccn1C1OC(CO)C(O)C1O (stereo not drawn) | -1.15
Cc1nnc(-c2ccccn2)o1 | 0.46
COc1ccc(OC(=O)CNC(=O)c2ccccc2)cc1 | 2.28
O=[N+]([O-])c1nccn1CCCOc1ccccc1 | 2.38
CCCCCCCCCC[n+]1ccc(C)cc1C.[I-] | 0.54
Cc1ccccc1OC1OC(CO)C(O)C(O)C1O (stereo not drawn) | -0.16
N#CCN(CC#N)N=O | 0.04
CC1CCC(C)N1N=O (stereo not drawn) | 0.86
Cc1nnc(C=NO)s1 | 0.78
O=NN(CCCl)C(=O)NC(CCC(=O)O)C(=O)O (stereo not drawn) | 0.6
Cc1c([N+](=O)[O-])cc(C(N)=O)cc1[N+](=O)[O-] | 0.68

Compound | logP
COc1ccc(CC(C)N)c(OC)c1 (stereo not drawn) | 1.75
O=[N+]([O-])C=Cc1ccc([N+](=O)[O-])cc1 | 1.89
O=[N+]([O-])C=Cc1ccccc1[N+](=O)[O-] | 1.8
COc1cc(Cc2cnc(N)nc2N)ccc1C | 2.14
COc1cc(Cc2cnc(N)nc2N)cc(OC)c1I | 2.4
Nc1nc(N)nc(-c2cccc(Cl)c2)n1 | 2.33
Nc1nnc(S(N)(=O)=O)s1 | -0.9
COC(=O)COc1c(OC)cc(Cc2cnc(N)nc2N)cc1OC | 0.55
COC12C(COC(N)=O)C3=C(C(=O)C(C)=C(Nc4ncc(C)s4)C3=O)N1CC1NC12 (stereo not drawn) | 1.16
CCCOn1c(=O)[nH]c(C)c(Br)c1=O | 0.76
Cc1ccoc1CN(C)C | 1.63
COP(=O)(NCC(C)C)Oc1cc(Cl)c(Cl)cc1Cl (stereo not drawn) | 3.86
O=C1CN=C(c2ccccc2F)c2cc([N+](=O)[O-])ccc2N1 | 2.15
CC(=O)Nc1c(C)cc(O)c(C)c1C | 0.75
CCCc1nnc(N)o1 | 0.23
Clc1ccc(-c2cc(Cl)ccc2Cl)cc1 | 5.69
CCOC(=O)C(C#N)=NNc1ccc([N+](=O)[O-])cc1[N+](=O)[O-] | 4.14
CN(C)/N=N/c1ccccc1C(=O)NC#N | 0.8
Cc1cccc(C)c1N=C1NCCN1 | 1.45
CCOP(=O)(OCC)SCS(=O)CC (stereo not drawn) | 1.78
COC(=O)C1CCCC(NC(=O)N(CCCl)N=O)C1 (stereo not drawn) | 1.89
O=S1(=O)NC(C2CCC2)=Nc2ccc(Cl)cc21 | 2.24
O=NN1CCCN(N=O)CC1 | -0.51
C[N+](C)(C)Cc1ccncc1.[Br-] | -3.95
CN1C(=N)SC(=Cc2ccc([N+](=O)[O-])o2)C1=O | 1.44

Compound | logP
CC1=Nc2ccc(F)cc2S(=O)(=O)N1 | 0.62
OCC1OC(Oc2cccc(C(F)(F)F)c2)C(O)C(O)C1O (stereo not drawn) | 0.49
O=C1CCC(=O)N1c1cccc(F)c1 | 0.38
O=[N+]([O-])c1ccc(OCCn2ccnc2)cc1 | 1.69
CCCCCC1(CC)C(=O)NC(=O)N(C)C1=O (stereo not drawn) | 2.45
COc1ccc(Cc2cnc(N)nc2N)cc1Br | 1.88
CCC(=O)Cn1ccnc1C=Cc1occc1[N+](=O)[O-] | 1.27
Nc1ccccc1OC1OC(CO)C(O)C(O)C1O (stereo not drawn) | -1.23
CCCCOCc1c(CO)cnc(C)c1O | 1.34
CC1=Nc2ccc(Br)cc2S(=O)(=O)N1 | 1.37
Nc1ccc(OC2OC(CO)C(O)C(O)C2O)cc1 (stereo not drawn) | -2.67
CNC=CC(C)c1ccccn1 (stereo not drawn) | 1.13
CC(=O)c1ccc2c(c1)C(c1ccccc1F)=NCC(=O)N2 | 1.75
Cc1ccc(C=C[N+](=O)[O-])cc1 | 2.66
Clc1nc2c(Cl)c(Cl)c(Cl)c(Cl)c2[nH]1 | 4.53
Cc1nnc(SCc2ccccc2)[nH]1 | 1.68
COC12C(COC(N)=O)C3=C(C(=O)C(C)=C(Nc4cccnc4)C3=O)N1CC1NC12 (stereo not drawn) | 0.52
O=[N+]([O-])C=Cc1ccc(O)cc1 | 2.12
COCC1=Nc2cc(Cl)ccc2S(=O)(=O)N1 | 1.12
Cc1cnc2cccc(C)n2c1=O | 1.26
CC(=O)c1ccccc1NC(=O)C(Cl)Cl | 2.65
CS(=O)(=O)CCCOc1ccc([N+](=O)[O-])cc1 | 0.93
NC(=O)Cn1nnc2ccccc21 | -0.1
CN(C)CCN(Cc1ccc(C(C)(C)C)cc1)c1ccccc1 | 5.34
CNC(=O)ON=Cc1ccc(Cl)c(Cl)c1 | 2.89

Compound | logP
O=C(COc1ccccc1)N1CCCCC1 | 1.81
CN1C(=Nc2ncc([N+](=O)[O-])s2)NCC1(C)C | 2.35
O=S1(=O)NC(C2CCCC2)=Nc2ccccc21 | 1.83
CCc1c(OC)cc(Cc2cnc(N)nc2N)cc1OC | 2.72
CCCCC1OC(=O)c2cc(Cl)ccc21 (stereo not drawn) | 3.53
CN(C)S(=O)(=O)c1ccccc1 | 1.35
CC(C)Cc1nnc(N)o1 | 0.4
COc1ccccc1N=NN(C)C | 2.34
CCCCC1OC(=O)c2cc(N)ccc21 (stereo not drawn) | 2.86
OCC1OC(Oc2cc(OC3OC(CO)C(O)C(O)C3O)c(I)cc2I)C(O)C(O)C1O (stereo not drawn) | -0.25
CC1C2CCC3C(O)C2(CC(O)C2(O)C1CC(O)C2(C)C)CC3(C)O (stereo not drawn) | 1.51
NNC(=O)NN=Cc1ccccc1 | 0.81
CS(=O)(=O)c1ccc(NS(=O)(=O)C(F)(F)F)cc1 | 1.99
COc1cccc(C=C(C(C)=O)C(C)=O)c1 | 1.79
N#CC(=Cc1ccccc1)C(=O)Nc1ccccc1 | 3.41
Cc1cc2c(cc1Cc1cnc(N)nc1N)OCO2 | 1.89
COP(=O)(NC(C)(C)C)SC (stereo not drawn) | 0.96
Cc1ccc(NC(=O)c2ccco2)c(O)c1 | 2.84
CCC(C)(Oc1ccc(Cl)cc1)C(=O)O (stereo not drawn) | 2.9
CCOP(=S)(OCC)SCS(=O)C(C)(C)C (stereo not drawn) | 2.21
CC(=O)N(CCCl)c1ccc(CC(=O)O)cc1 | 1.2
O=C(O)c1ccccc1Nc1cccc([N+](=O)[O-])c1 | 4.57
O=C1CN=C(c2ccccc2Cl)c2cc(Cl)ccc2N1 | 3.15
Cc1ccc(Cl)c(Cl)c1NC1=NCCN1 | 2.35
CC1(C)CCCC(C)(C)N1N=O | 2.49

Compound | logP
COc1ccc(Cc2cnc(N)nc2N)cc1N | 0.76
CSC(C)=NOC(=O)N(C)SN(C)C(=O)OC1CCCCC1 | 3.6
CCCCCCCCCC[n+]1cc(C)cc(C)c1.[I-] | 0.76
CCOC(=O)CN(C(=O)CCl)c1ccccc1 | 1.6
CN(C)c1ccc2c(c1)C(=O)OC2(C)C | 2.42
CN(C)c1ccc2c(c1)C(c1ccccc1)=NCC(=O)N2 | 2.43
CC(C)NC(=O)NN | -1.3
Clc1cc(Cl)c(Cl)c(-c2c(Cl)ccc(Cl)c2Cl)c1 | 7.15
NC(=S)NN=Cc1cccc(O)c1 | 1.61
CC12CCC(=O)C=C1CCC1C3CCC4(CCC(=O)O4)C3(C)CC3OC312 (stereo not drawn) | 1.89
O=S(=O)(Nc1ccc(F)cc1F)C(F)(F)F | 3.06
NC(=O)/C=C/c1ccc2c(c1)OCO2 | 1.4
CSC(C)=NOC(=O)N(C)SN(C)C(=O)c1ccccc1Cl | 2.5
COCN1C(=O)CN=C(c2ccccc2)c2cc([N+](=O)[O-])ccc21 | 2.05
CSC(C)=NOC(=O)N(C)SN(C)C(=O)c1c(Cl)cccc1Cl | 2.6
CCc1cc(OP(=O)(OC)OC)ccc1[N+](=O)[O-] | 2.19
Nc1ccc(C(=O)Oc2ccc(Cl)cc2Cl)c(O)c1 | 4.27
CCNNC(=O)COc1ccc(Cl)cc1 | 1.73
COC1C(Cl)C(Cl)C(Cl)C(Cl)C1OC (stereo not drawn) | 2.82
[O-][n+]1ccccc1SCc1ccccc1 | 1.24
CC(C)c1nnc(N2CCOCC2)n(N)c1=O | 0.49
O=C(NCc1ccccc1O)c1ccccc1 | 2.55
CC(C)N1CCOC(c2cccc(Cl)c2)C1 (stereo not drawn) | 3.27
COC(=O)C(C#N)=NNc1ccc2c(c1)OC(F)(F)C(F)(F)O2 | 4.86
S=C=Nc1ccc(C=Cc2ccccc2)cc1 | 5.85

Compound | logP
CN(C)c1nnc(-c2ccccc2)c2ccccc12 | 3.22
COc1cc(S(=O)(=O)CCO)cc(OC)c1OC | 0.18
CN1CCN(C(=O)c2ccccc2)CC1 | 0.35
CN1C(=O)SC(=CC=Cc2ccc([N+](=O)[O-])o2)C1=O | 1.4
COc1cc(Cc2cnc(N)nc2N)cc(OC)c1C(C)(C)O | 1.49
CCc1cccc(OC2OC(CO)C(O)C(O)C2O)c1 (stereo not drawn) | 0.31
COc1cc(Cc2cnc(N)nc2N)cc(OC)c1C(=O)CS(C)(=O)=O | -0.31
Clc1ccc(-c2ccc(Cl)cc2Cl)cc1 | 5.62
O=NN(CCF)C(=O)NCCCl | 0.96
CCN(CC)CCNC(=O)c1cc(Br)ccc1OC | 3.2
Nc1ncco1 | -0.18
N#Cc1ccc2nccnc2c1 | 1.01
O=[N+]([O-])c1nccn1CC(O)CO (stereo not drawn) | -0.96
O=C(Nc1ccccc1)NC(CO)(CO)CO | 0.43
C[N+](C)(C)Cc1cccc(C(N)=O)c1.[Br-] | -2.8
CC(=O)C(C#N)=NNc1ccc([N+](=O)[O-])cc1[N+](=O)[O-] | 3.4
N#Cc1ccc(OC(=O)CNC(=O)c2ccccc2)cc1 | 2.11
CN(C)C1=NC(=O)C(=Cc2ccc([N+](=O)[O-])o2)S1 | 1.14
O=[N+]([O-])c1cccc2c1c([N+](=O)[O-])cc[n+]2[O-] | 0.95
CCc1ccc2c(c1)N=C(C)NS2(=O)=O | 1.25
CN(C)C(=O)c1ccsc1 | 0.55
CN(/N=N/c1nc[nH]c1C(N)=O)C(C)(C)C | 0.94
CNC1=NC(=O)C(=CC=Cc2ccc([N+](=O)[O-])o2)S1 | 1.35
